Test results from patent publication US9212381B2, “Methods and compositions for labeling polypeptides” (President and Fellows of Harvard College, priority 2011, dated 2015).
Entries after “also recorded” stand apart in the source; their conditions may differ.

How the values were obtained:
[1] = tested on: Cells; conditions: Beatty et al. 2002; cited from earlier work
[2] = tested on: protein translation in rabbit reticulocyte lysates; assay: in vitro translation of 35S-Met-labeled GFP-SuFu in rabbit reticulocyte lysates, SDS-PAGE and autoradiography; type: biochemical; conditions: for inhibition of protein translation in vitro: varying concentrations, 1 hour at 30° C.
Protocol: (§1) A plasmid carrying a GFP fusion of the mouse Suppressor of Fused (SuFu) gene under the control of an SP6 RNA polymerase promoter was used to generate 35[S]-Met-labeled GFP-SuFu by in vitro translation in rabbit reticulocyte lysates (TNT SP6 Quick coupled transcription/translation kit, Promega), according to the manufacturer's instructions. Translation reactions were performed for 1 hour at 30° C., in the absence or presence of varying concentrations of puro and OP-puro. The reactions were stopped by addition of SDS-PAGE sample buffer with 50 mM DTT and boiling. Equal amounts of lysate were separated by SDS-PAGE and the amount of in vitro translated GFP-SuFu was determined by autoradiography.
as §1, with “^35S-Met-labeled” for “35[S]-Met-labeled”, “AE-puro (azido-puromycin, FIG. 5A).” for “OP-puro.”

[3] = tested on: NIH-3T3 cells; assay: OP-puro labeling of cultured cells, CuAAC with Alexa568-azide, fluorescence microscopy; type: cell-based
Protocol: NIH-3T3 cells were grown on glass coverslips in Dulbecco modified Eagle's medium (DMEM) supplemented with 10% bovine calf serum, penicillin and streptomycin. OP-puro was added to cells in complete culture medium. After incubation for the desired amount of time, the cells were washed with PBS and then fixed with cold methanol for 2 minutes at −20° C. The cells were washed with TBS (10 mM Tris pH 7.5, 150 mM NaCl), permeabilized with TBST (TBS with 0.2% Triton X-100), and then washed with TBS again. CuAAC detection of OP-puro incorporated into nascent protein was performed by reacting the fixed cells for 30 minutes at room temperature with 20 μM Alexa568-azide, as described (Salic et al., Proc. Natl. Acad. Sci. USA 105(7):2415-2420 (2008)). Cu(I) was generated in situ from CuSO4 and ascorbic acid. After staining, the coverslips were washed several times with TBST, counterstained with Hoechst, and mounted in standard mounting media. The stained cells were imaged by DIC and by epi-fluorescence microscopy on a Nikon TE2000U microscope equipped with an OrcaER camera (Hammamatsu), and 20× PlanApo 0.75 NA and 40× PlanApo 0.95 NA air objectives (Nikon). Images were collected using Metamorph image acquisition software (Applied Precision).
To determine if protein synthesis is required for OP-puro incorporation into nascent polypeptides, cells were incubated with OP-puro, in the presence or absence of 50 micrograms/mL cycloheximide (CHX), added to the cells 15 minutes before OP-puro. This concentration of CHX was determined to completely block protein translation in cells.
To determine the effect of inhibiting the proteasome on the stability of OP-puro-conjugated polypeptide chains, cells were pulse-labeled with 50 microM OP-puro for 15 minutes and were then incubated in complete media supplemented with 50 micrograms/mL CHX (to block further incorporation of OP-puro into nascent proteins), in the presence or absence of 5 microM of the proteasome inhibitor bortezomib. Cells were fixed at the indicated times and were stained in parallel with Alexa568-azide. Two negative controls were used: 1) untreated cells; and 2) cells pre-incubated with 50 micrograms/mL CHX for 15 minutes, followed by incubation with 50 microM OP-puro and 50 micrograms/mL CHX for another 15 minutes.

[4] = tested on: Human 293T cells; assay: affinity purification of nascent polypeptide-OP-puro conjugates (CuAAC with biotin azide, beads, autoradiography); type: cell-based; conditions: 25 microM OP-puro, 1 hour, FIG. 1E
Protocol: Human 293T cells were labeled for 1 hour in Met-free DMEM supplemented with 10% dialyzed fetal bovine serum and 35[S]-Met (100 microCi/mL final). The cells were then incubated in the same media, in the presence of 10 microM puro, 25 microM OP-puro or 25 microM OP-puro and 50 micrograms/mL CHX, for an additional 1 hour. The cells were harvested, washed with ice cold PBS and then lyzed on ice in 100 mM Tris pH 8.5 with 1% Triton-X10 and protease inhibitors. The lysates were clarified by centrifugation for 15 minutes at 20,000 g and 4° C., and were then subjected to CuAAC with biotin azide for 30 minutes at room temperature. The final concentrations in the CuAAC reaction were: 100 microM biotin azide, 1 mM CuSO4 and 50 mM ascorbic acid (added last to the lysates). Biotinylated proteins were diluted in binding buffer (20 mM Tris pH 8, 500 mM NaCl, 1% Triton-X100) and were bound to Neutravidin beads (Pierce). After extensive washes with binding buffer, bound proteins were eluted, separated by SDS-PAGE and detected by autoradiography.

[5] = tested on: human embryonic kidney 293T cells; assay: translation inhibition in cells: 35S-Met bulk protein translation, SDS-PAGE and autoradiography; type: cell-based
Protocol: To measure translation inhibition in cells, human embryonic kidney 293T cells were pre-incubated for 30 minutes with varying concentrations of puro or OP-puro, in complete media. The cells were then incubated for 3 hours in Met-free media supplemented with 35[S]-Met (from Perkin-Elmer, at 100 microCi/mL final concentration), in the continued presence of varying concentrations of puro or OP-puro. The cells were harvested, lyzed in TBS with 1% Triton X-100 and protease inhibitors (Complete tablets, Roche), and centrifuged for 15 minutes at 20,000 g in a refrigerated centrifuge. The clarified cells lysates were analyzed by SDS-PAGE, followed by autoradiography, to measure bulk protein translation.

[6] = tested on: nascent proteins in mouse tissues; assay: imaging of protein synthesis in whole animals with OP-puro, CuAAC with TMR-azide; type: in vivo
Protocol: One hundred microliters of a 20 mM solution of OP-puro in PBS were injected intraperitoneally into a 3-week old mouse, while a mouse injected with 100 microliters of PBS was used as negative control. Various organs were harvested after one hour and were fixed in formalin overnight. Organ fragments were embedded in paraffin, sectioned, and washed with xylene to remove the paraffin. After washing with ethanol and rehydration in TBS, the tissue sections were stained with 20 microM tetramethylrhodamine(TMR)-azide, as described (Salic et al., Proc. Natl. Acad. Sci. USA 105(7):2415-2420 (2008)). The tissue sections were counterstained with Hoechst, mounted in standard mounting media and were then imaged by fluorescence microscopy and DIC.

## [N-]=[N+]=NCC[C@H](N)C(=O)O [Aha, azidohomoalanine]
[1]
  factor by which cells prefer Met over the analog: about 500

## CN(C)c1ncnc2c1ncn2[C@@H]1O[C@H](CO)[C@@H](NC(=O)[C@@H](N)Cc2ccc(OCCN=[N+]=[N-])cc2)[C@H]1O [AE-puro, (S)-2-Amino-3-(4-(2-azidoethoxy)phenyl)-N-((2S,3S,4R,5R)-5-(6-(dimethylamino)-9H-purin-9-yl)-4-hydroxy-2(hydroxymethyl)tetrahydrofuran-3-yl)propanamide]
[2]; reticulocyte lysates, FIG. 5B
  potency of protein synthesis inhibition compared with unmodified puromycin: equal to that of unmodified puromycin
[2]
  inhibition of protein translation in vitro: inhibits protein synthesis in a dose-dependent manner

## C[C@@H]1C[C@@H]([C@H](O)CC2CC(=O)NC(=O)C2)C(=O)[C@@H](C)C1 [CHX, cycloheximide, reference compound]
[3]; CHX 50 micrograms/mL
  effect on OP-puro incorporation / conjugate formation: abolished; also recorded: do not form
[3]; added 15 minutes before OP-puro
  concentration determined to completely block protein translation in cells: 50 micrograms/mL

## C#CCCC(N)C(=O)O (stereo not drawn) [Hpg, homopropargylglycine]
[1]
  factor by which cells prefer Met over the analog: about 500

## CC(C)C[C@H](NC(=O)[C@H](Cc1ccccc1)NC(=O)c1cnccn1)B(O)O [bortezomib, reference compound]
[3]; 5 microM bortezomib in chase, FIG. 2C
  effect on stability of OP-puro conjugates: become stable; also recorded: completely stabilized

## C#CCOc1ccc(C[C@H](N)C(=O)N[C@H]2[C@@H](O)[C@H](n3cnc4c(N(C)C)ncnc43)O[C@@H]2CO)cc1 [OP-puro, (S)-2-Amino-N-((2S,3S,4R,5R)-5-(6-(dimethylamino)-9H-purin-9-yl)-4-hydroxy-2-(hydroxymethyl)tetrahydrofuran-3-yl)-3-(4-(prop-2-yn-1-yloxy)phenyl)propanamide]
[2]; reticulocyte lysates, FIG. 1C
  potency of protein synthesis inhibition, fold lower than that of unmodified puro: 2-3 fold
[2]
  inhibition of protein translation in vitro: inhibits protein synthesis in a dose-dependent manner
[3]; 1 hour incubation, Alexa568-azide, FIG. 2A
  fluorescent signal versus OP-puro concentration: specific fluorescent signal proportional to the concentration of OP-puro; also recorded: proportional to the concentration of added OP-puro
[3]; 3 hour image of FIG. 2B
  cytoplasmic OP-puro signal at later time points: significantly decreased
[3]; FIG. 2B
  incubation time after which a strong signal was seen: 15 min
[3]; stated in legend of FIG. 2B
  concentration sufficient to completely block protein synthesis: 50 µM
[4]
  formation of conjugates with nascent polypeptide chains: formed conjugates with 35[S]-Met-labeled nascent polypeptide chains
[5]; cell type not stated at the place
  concentration that blocked protein synthesis almost completely: 25 µM
[5]; cultured cells, FIG. 1D
  potency of protein synthesis inhibition, fold lower than that of unmodified puro: 2-3 fold
[6]; 100 microliters 20 mM intraperitoneally, organs harvested after 1 hour
  OP-puro incorporation into nascent proteins in tissues: specific patterns of OP-puro incorporation into nascent proteins
[6]; intraperitoneal, 1 hour, FIG. 3A/3B
  OP-puro staining pattern, small intestine: strongest in cells in the crypts and at the base of intestinal villi; also recorded: stains strongly the cells in the crypts (particularly Paneth cells) and the cells at the base of the villi
[6]; intraperitoneal, 1 hour, FIG. 3C
  OP-puro staining, muscle: striking striated pattern; also recorded: Sarcomeres are strongly stained
[6]; intraperitoneal, 1 hour, FIG. 4A
  OP-puro staining, liver: strongest in hepatocytes; also recorded: stains strongly all hepatocytes
[6]; intraperitoneal, 1 hour, FIG. 4C
  OP-puro staining, spleen: strongest OP-puro signal is found at the organ's periphery, under the capsule
